Laboratory results published in patent US12054486B2, “Pyridine derivatives and their use as sodium channel activators” (Xenon Pharmaceuticals Inc., priority 2021, dated 2024).
pEC50: −log10 of the molar value.

What was measured:
[1] = target: sodium channel isoforms of interest stably expressed in Human Embryonic Kidney Cells (voltage-gated sodium channel, particularly NaV1.1) (Homo sapiens, UniProt P35498); assay: automated planar patch clamp assay of sodium channel gating (area under the sodium current trace); type: cell-based; details: HEK cells, voltage step from −120 mV to 0 mV, increasing concentrations
In short: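 Sodium channel isoforms stably expressed in HEK cells, recorded by automated planar patch clamp with depolarizing steps from −120 mV to 0 mV at increasing compound concentrations. Area under the current trace quantifies gating effect; peak current, inactivation time constant and steady-state inactivation also measured; potency from concentration responses.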

NaV1.5 = NaV1.5 (Homo sapiens, UniProt Q14524); details: relative to NaV1.1 activation; cited from earlier work
NaV1.1 = NaV1.1 (Homo sapiens, UniProt P35498); details: NaV1.1-expressing HEK cells; cited from earlier work
NaV1.2 = NaV1.2 (Homo sapiens, UniProt Q99250); details: relative to NaV1.1 activation; cited from earlier work
Sequence of NaV1.2 (Q99250 whole entry): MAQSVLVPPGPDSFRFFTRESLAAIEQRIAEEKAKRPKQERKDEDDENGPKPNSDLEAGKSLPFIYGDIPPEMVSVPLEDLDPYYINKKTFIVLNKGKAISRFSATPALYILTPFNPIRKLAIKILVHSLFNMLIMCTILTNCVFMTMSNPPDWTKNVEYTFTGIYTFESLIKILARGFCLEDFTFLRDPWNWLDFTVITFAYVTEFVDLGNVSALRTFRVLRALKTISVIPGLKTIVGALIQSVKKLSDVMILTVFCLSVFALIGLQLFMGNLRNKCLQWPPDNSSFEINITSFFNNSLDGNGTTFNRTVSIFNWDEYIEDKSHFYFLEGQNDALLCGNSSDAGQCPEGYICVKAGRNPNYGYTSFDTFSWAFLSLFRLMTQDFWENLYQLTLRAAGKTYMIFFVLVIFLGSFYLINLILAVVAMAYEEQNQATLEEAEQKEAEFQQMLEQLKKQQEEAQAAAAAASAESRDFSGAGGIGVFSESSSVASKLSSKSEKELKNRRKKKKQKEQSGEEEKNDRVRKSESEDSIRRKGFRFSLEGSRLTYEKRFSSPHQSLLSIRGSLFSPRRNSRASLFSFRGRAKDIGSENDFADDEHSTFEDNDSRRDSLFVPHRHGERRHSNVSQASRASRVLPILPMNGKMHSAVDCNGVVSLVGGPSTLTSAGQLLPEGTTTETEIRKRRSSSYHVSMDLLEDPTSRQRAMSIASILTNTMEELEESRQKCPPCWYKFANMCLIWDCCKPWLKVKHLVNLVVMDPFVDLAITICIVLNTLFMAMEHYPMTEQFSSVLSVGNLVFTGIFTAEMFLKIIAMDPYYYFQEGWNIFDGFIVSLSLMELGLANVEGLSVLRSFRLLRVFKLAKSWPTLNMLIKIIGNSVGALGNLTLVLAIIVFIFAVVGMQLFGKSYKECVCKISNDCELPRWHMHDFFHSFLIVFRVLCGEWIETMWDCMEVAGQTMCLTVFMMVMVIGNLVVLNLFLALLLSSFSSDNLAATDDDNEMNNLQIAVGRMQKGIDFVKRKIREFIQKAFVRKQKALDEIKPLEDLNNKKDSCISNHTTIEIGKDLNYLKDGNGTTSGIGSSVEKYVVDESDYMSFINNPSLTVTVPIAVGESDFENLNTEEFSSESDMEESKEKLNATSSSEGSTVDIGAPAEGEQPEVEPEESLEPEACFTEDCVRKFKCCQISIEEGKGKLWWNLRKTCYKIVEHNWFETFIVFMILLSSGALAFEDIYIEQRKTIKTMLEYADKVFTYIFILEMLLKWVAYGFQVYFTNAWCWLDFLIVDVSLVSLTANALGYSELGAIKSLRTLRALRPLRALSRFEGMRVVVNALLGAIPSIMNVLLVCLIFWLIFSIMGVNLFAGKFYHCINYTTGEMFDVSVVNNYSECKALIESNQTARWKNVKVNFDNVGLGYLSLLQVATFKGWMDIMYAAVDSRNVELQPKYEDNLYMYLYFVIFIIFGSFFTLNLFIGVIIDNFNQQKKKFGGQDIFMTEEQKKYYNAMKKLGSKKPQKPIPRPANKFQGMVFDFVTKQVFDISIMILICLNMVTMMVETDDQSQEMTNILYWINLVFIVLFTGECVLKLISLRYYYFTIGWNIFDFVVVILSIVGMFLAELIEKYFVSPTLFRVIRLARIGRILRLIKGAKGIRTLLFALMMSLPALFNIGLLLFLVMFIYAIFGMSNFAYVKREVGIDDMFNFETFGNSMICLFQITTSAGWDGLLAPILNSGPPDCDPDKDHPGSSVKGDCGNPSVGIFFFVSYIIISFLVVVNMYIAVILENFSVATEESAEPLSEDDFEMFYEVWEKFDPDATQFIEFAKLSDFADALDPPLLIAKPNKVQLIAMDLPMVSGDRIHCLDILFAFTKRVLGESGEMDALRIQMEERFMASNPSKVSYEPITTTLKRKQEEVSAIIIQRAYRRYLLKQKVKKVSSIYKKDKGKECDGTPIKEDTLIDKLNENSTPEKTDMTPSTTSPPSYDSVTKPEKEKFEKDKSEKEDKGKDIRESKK

Sequence of NaV1.5 (Q14524 whole entry): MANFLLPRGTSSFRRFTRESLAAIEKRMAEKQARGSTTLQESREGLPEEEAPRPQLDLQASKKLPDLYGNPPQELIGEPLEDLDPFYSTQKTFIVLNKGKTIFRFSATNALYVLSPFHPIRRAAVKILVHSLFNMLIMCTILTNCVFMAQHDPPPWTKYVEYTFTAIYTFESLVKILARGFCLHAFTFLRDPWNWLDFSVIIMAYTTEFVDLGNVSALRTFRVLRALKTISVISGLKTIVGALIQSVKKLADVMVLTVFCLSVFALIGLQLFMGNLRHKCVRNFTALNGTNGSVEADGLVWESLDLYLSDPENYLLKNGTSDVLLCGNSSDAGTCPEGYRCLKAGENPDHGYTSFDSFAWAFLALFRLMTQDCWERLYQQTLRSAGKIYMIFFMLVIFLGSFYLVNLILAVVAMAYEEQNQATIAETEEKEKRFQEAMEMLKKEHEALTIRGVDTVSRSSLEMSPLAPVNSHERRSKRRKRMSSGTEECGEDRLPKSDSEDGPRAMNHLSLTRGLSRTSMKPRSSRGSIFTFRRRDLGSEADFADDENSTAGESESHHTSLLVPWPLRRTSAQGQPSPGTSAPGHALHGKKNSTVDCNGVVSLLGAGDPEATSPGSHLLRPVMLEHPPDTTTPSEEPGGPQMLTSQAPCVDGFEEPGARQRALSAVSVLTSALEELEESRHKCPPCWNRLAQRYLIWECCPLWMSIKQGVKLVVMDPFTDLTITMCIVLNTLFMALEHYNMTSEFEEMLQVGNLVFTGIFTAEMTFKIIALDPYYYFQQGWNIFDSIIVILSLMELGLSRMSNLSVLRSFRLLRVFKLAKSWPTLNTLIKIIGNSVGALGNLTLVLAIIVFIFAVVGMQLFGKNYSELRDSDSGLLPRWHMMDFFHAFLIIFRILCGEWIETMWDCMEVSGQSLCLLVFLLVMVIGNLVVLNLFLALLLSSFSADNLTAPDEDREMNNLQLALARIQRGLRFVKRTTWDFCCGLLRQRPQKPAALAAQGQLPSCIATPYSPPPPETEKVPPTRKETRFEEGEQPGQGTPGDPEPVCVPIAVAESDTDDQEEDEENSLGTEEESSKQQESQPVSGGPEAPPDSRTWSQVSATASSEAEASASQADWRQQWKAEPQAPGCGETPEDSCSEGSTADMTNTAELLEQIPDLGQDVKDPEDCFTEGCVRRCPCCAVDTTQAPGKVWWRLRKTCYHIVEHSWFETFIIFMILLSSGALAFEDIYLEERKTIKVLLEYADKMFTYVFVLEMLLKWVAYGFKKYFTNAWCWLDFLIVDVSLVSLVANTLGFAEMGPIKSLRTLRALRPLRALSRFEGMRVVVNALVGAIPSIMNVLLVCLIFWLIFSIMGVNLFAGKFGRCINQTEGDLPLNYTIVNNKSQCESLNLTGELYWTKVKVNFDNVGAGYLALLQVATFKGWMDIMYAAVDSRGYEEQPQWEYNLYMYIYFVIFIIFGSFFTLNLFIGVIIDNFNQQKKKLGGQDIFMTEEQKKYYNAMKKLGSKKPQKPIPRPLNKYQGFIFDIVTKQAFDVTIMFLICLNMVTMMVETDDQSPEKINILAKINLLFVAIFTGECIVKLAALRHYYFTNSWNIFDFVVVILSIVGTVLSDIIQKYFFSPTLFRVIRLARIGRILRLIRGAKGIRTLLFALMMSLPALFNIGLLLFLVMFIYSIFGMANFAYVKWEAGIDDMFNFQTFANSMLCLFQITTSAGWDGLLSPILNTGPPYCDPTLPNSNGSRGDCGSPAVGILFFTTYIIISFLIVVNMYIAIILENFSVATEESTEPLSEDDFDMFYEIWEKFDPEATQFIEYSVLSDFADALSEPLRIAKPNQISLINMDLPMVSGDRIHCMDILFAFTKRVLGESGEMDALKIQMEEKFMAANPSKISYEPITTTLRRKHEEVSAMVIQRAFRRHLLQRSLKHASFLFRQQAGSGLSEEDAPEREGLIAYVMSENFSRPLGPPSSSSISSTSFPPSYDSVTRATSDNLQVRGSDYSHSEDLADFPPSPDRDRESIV

SMILES	pEC50 [1]	Empirical Emax [1]	selectivity against NaV1.5 (NaV1.5)	concentration from which the total area under the curve for the duration of the depolarizing pulse is increased (NaV1.1)	selectivity against NaV1.2 (NaV1.2)
Fc1cccc(-c2ccnc(N3CCC(F)(F)C3)c2-c2nc3c([nH]2)CCOC3)c1F [Example 77, 2-[4-(2,3-difluorophenyl)-2-(3,3-difluoropyrrolidin-1-yl)-3-pyridyl]-1,4,6,7-tetrahydropyrano[3,4-d]imidazole]	> 6.00	++++ (++++ indicates a value greater than 7.5)	–	–	–
Fc1ccccc1-c1ccnc(N2CCC(F)(F)C2)c1-c1nc2ccncc2[nH]1 [Example 78, 2-[2-(3,3-difluoropyrrolidin-1-yl)-4-(2-fluorophenyl)-3-pyridyl]-1H-imidazo[4,5-c]pyridine]	> 6.00	++++ (++++ indicates a value greater than 7.5)	–	–	–
Cc1cc2nc(-c3c(-c4ccccc4F)ccnc3N3CCC(F)(F)C3)[nH]c2cn1 [Example 79, 2-[2-(3,3-difluoropyrrolidin-1-yl)-4-(2-fluorophenyl)-3-pyridyl]-6-methyl-3H-imidazo[4,5-c]pyridine]	> 6.00	++++ (++++ indicates a value greater than 7.5)	–	–	–
Cn1cc2nc(-c3c(-c4ccccc4F)ccnc3N3CCC(F)(F)C3)[nH]c2n1 [Example 80, 5-[2-(3,3-difluoropyrrolidin-1-yl)-4-(2-fluorophenyl)-3-pyridyl]-2-methyl-4H-imidazo[4,5-c]pyrazole]	5.00 to 6.00	+++ (+++ indicates a value from 5.0 up to 7.5 μM)	–	–	–
CCCCNS(=O)(=O)c1ccc(OC)c(-c2nnc3c4ccccc4c(C)nn23)c1 [Lu AE98134]	–	–	low selectivity	≥ 1 µM	moderate selectivity
